One assay has as its system HIV. The assay can be described thus: antiviral assay (enantiomer comparison, cell line not given). The note with it: enantiomers compared with each other. In kind it is cell-based.
The next assay concerns the target T1, HIV-1 protease (Human immunodeficiency virus type 1 group M subtype B, UniProt P04585).
T1 construct: purified HIV-1 protease
The assay can be described thus: biochemical. In kind it is biochemical. The settings on record: 0.5M NaCl, 50 mM MES pH 5.6, 2% DMSO, 37° C., 200 μM substrate.

In another assay the test system is HIV-1 (CEM cells). The assay can be described thus: Anti-HIV MTT assay, inhibition of HIV-induced cell killing, CEM cells. In kind it is cell-based, HIV-1 isolates IIIB and/or RF. The settings on record: Human immunodeficiency virus 1, CCRF-CEM, 144 h, CEM cell line (first position), 6 days, 37° C., read-out: Viral CEM. An excerpt: (§1) SRI has an established program for the primary antiviral analysis of compounds in microtiter assays which measure the ability of a selected compound to inhibit HIV-induced cell killing. This assay involves the conversion of the tetrazolium dye MTT to a colored formazan product by mitochondrial enzymes in metabolically active cells. This assay system is presently used at SRI to screen over 30,000 compounds per year. Briefly, the assay involves the infection of CEM or MT2 cells in round bottom 96-well plates. The compound of interest is added just prior to infection. Following 6 days of incubation at 37° C. the plates are stained with MTT. The results of the assay are quantitated spectrophotometrically on a Molecular Devices Vmax plate reader. The data is analyzed by linear regression utilizing an in-house software program to calculate antiviral activity. (IC25, IC50, IC95) and toxicity (TC25, TC50, TC95) as well as other values.
(§2) Primary antiviral assays are routinely performed in CEM or MT-2 cells.
(§3) Drugs will be solubilized in the appropriate vehicle such as distilled water or DMSO if necessary. Latex gloves, lab coats and masks are used during all phases of the handling process to prevent exposure to potentially harmful agents. The drug is prepared at the appropriate concentration and stored at -20° C. until used by the screening laboratory. The first dilution of each compound is made in a dilution tube with medium to yield a concentration two-fold that of the highest test concentration. Sterile titer tubes are then used to make serial one half-log dilutions of each compound. Following drug dilution, the diluted compound is added to the appropriate well of a 96-well microtiter plate. Up to 12 dilutions can be assayed conveniently in triplicate on a single plate with all appropriate controls including cell control, virus control, toxicity control, drug color control, medium control and plastic (background) control. When testing includes only six dilutions, two drugs can be assayed on a single microtiter plate. The drugs are added to the plate in a final volume of 100 microliters.
(§4) During the time the drug dilutions are prepared, cells are washed and counted. Viability is monitored by trypan blue dye exclusion and assays are not performed if the viability falls below 90%. Cells are maintained in an exponential growth phase and are split 1:2 on the day prior to assay to assure exponential growth rate.
(§5) For the primary screen, the cell lines utilized are CEM and MT-2. Unless otherwise indicated, the medium used is RPMI 1640 with 10% heat-inactivated fetal calf serum (FBS), glutamine and antibiotics.
(§6) Cells are propagated at 37° C. in an atmosphere of 5% CO2 in air. The virus employed for this work is HIV-1 isolates IIIB and/or RF, which are prepared by an acute infection process.
(§7) Briefly, virus-infected cells are pelleted on a daily basis beginning at three days post-infection until the virus has killed all of the cells in the culture. Reverse transcriptase activity and p24 ELISA are used to identify pools with the greatest amount of virus.
(§8) These 24-hour harvests are pooled, filtered and frozen at -90° C. Prior to use in the assay, the infectious pool of virus is titered on all available cell lines in order to determine the amount of virus required in the antiviral assay.
(§9) In general, pools produced by the acute infection method require the addition of one microliter of infectious virus per well resulting in the screening of drugs at a multiplicity of infection of 0.01. In this manner enough virus is prepared and frozen to complete over one thousand microtiter plates, allowing the testing of up to two thousand compounds from a single stock of infectious virus. The use of a single stock of virus for a long period of testing has very favorable effects on the repeatability of the assay systems.
(§10) Virus infection of the CEM and MT-2 cells for the antiviral assay is carried out in a bulk infection process. […]
In general terms: Tetrazolium dyes change colour on reduction, which living cells bring about.

The subject of the next assay is HIV-1 (MT-2 cells). The assay can be described thus: Anti-HIV MTT assay, inhibition of HIV-induced cell killing, MT-2 cells. The assay is classed as cell-based, HIV-1 isolates IIIB and/or RF. The note with it: Human immunodeficiency virus 1, MT2, 144 h; MT-2 cells (second position), 6 days, 37° C., MTT; read-out: Viral MT-2.
Source text: as §1, §2, §3, §4, §5, §6, §7, §8, §9, §10

Structures are written as SMILES. In brackets after ≈: the same amount, converted by molar mass.

Regarding `CCC1(N(CCO)C(=O)c2ccccc2CC[C@@H](O)Cc2ccc(C)cc2C(=O)N(CCO)C(C)(C)c2ccccc2)CCCC1` [Example 116a], the “activity in the antiviral assay” value in the assay with HIV is “more active”.
Regarding `CCC1(N(CCO)C(=O)c2ccccc2CC[C@H](O)Cc2ccc(C)cc2C(=O)N(CCO)C(C)(C)c2ccccc2)CCCC1` [Example 116b], in the assay on HIV, the “activity in the antiviral assay” value is “less active”.
Take `CCC1(N(CCO)C(=O)c2ccccc2CCC(O)Cc2ccc(C)cc2C(=O)N(CCOC(=O)[C@@H](N)C(C)C)C(C)(C)c2ccccc2)CCCC1` (stereo partly shown) [Example 114]: the IC50 at HIV-1 protease amounted to 398 nM; in the assay with HIV-1 (CEM cells) it was 2.11 µg/mL (≈ 2.9 µM); with HIV-1 (MT-2 cells), 1.75 µg/mL (≈ 2.4 µM). Besides, the Ki on HIV-1 protease turned out to be 230 nM.
For `Cc1ccc(CCC(O)Cc2ccccc2C(=O)N(CCOCc2ccccc2)C(C)(C)c2ccccc2)c(C(=O)N(CCO)C(C)(C)C)c1` (stereo not shown) [Example 84] the same measures were 351 nM, > 100 µg/mL, > 100 µg/mL and 315 nM.

For orientation: Ki means a dissociation constant, usually derived from enzyme kinetics or from competition with a known ligand. A higher Ki goes with a looser hold on the target.
